Measured values published in patent US20120184545A1, “HEART-SLOWING DRUG CONTAINING SHORT-ACTING BETA-BLOCKER AS TEH ACTIVE INGREDIENT” (ONO PHARMACEUTICAL CO., LTD., priority 2003, published 2012).
Counter-ions that a name gives are not always drawn.

Columns and labels:
[1] = cited from earlier work
angina pectoris patients = assay: efficacy and safety of landiolol hydrochloride in coronary angiography using MSCT; assay type: in vivo, human
Text: Evaluation of efficacy and safety of landiolol hydrochloride to the coronary angiography ability using MSCT:
In the imaging of MSCT, LightSpeed Ultra 16 (16-slices MSCT, manufactured by GE medical systems) was used.
As a Workstation, Advantage Workstation AW 4.2 (manufactured by GE Medical Systems) was used.
As an imaging analysis soft, CardIQ Analysis II manufactured by GE Medical Systems was used.
As contrast media, iomeprol 350 mgI/ml (brand name: Iomeron 350, manufactured by Eisai Co., Ltd., was used.
To four angina pectoris patients, was intravenously administered landiolol hydrochloride swiftly over a period of 1 minute (0.063 mg/kg/minute), followed by a sustained intravenous administration over a period of 10 minutes (0.02 mg/kg/minute).
The contrast media were administered 10 minutes after confirming that the heart rate was slowed down. The imaging timing was determined by a test injection method using contrast media. As a result of swift administration of iomeprol (10 ml) and saline (20 ml) sequentially, it took approximately average of 16 seconds for iomeprol to reach heart. Afterwards, iomeprol (70 ml) and saline (20 ml) were swiftly administered sequentially and in time with the timing when iomeprol reached heart, MSCT imaging was started.
Three-dimensional overall figures of coronary artery were grasped with (A), and then followed by evaluation of the lesion site with (B) and (C), optionally followed by addition of an orthogonal cross-section imaging of a coronary artery for further confirmation.
To the above four angina pectosis patients, landiolol hydrochloride was administered. […] The inhibition rate (%) was calculated by {(post-value/(pre-value)×100−100}.

Structure (SMILES) | half life in blood [1] | image quality of coronary angiography by MSCT (angina pectoris patients; after administration of landiolol hydrochloride, iomeprol contrast medium, 16-slices MSCT) | lowering of the blood pressure (safety) (angina pectoris patients; angina pectoris patients, after administration) | Heart rate after administration (angina pectoris patients; four angina pectoris patients (n = 4), i.v. 0.063 mg/kg/minute for 1 minute, then 0.02 mg/kg/minute for 10 minutes, before administration 61.0) | Systolic blood pressure after administration (angina pectoris patients; four angina pectoris patients (n = 4), i.v. 0.063 mg/kg/minute for 1 minute, then 0.02 mg/kg/minute for 10 minutes, before administration 173.3)
COC(=O)CCc1ccc(OCC(O)CNC(C)C)cc1 (centres unmarked) [esmolol hydrochloride, Methyl 3-[4-[2-hydroxy-3-(isopropylamino)propoxy]phenyl]propionic acid hydrochloride] | approximately 9 minutes | – | – | – | –
CC1(C)OC[C@@H](COC(=O)CCc2ccc(OC[C@@H](O)CNCCNC(=O)N3CCOCC3)cc2)O1 [landiolol hydrochloride, (−)-[(S)-2,2-dimethyl-1,3-dioxolan-4-yl]methyl-3-[4-[(S)-2-hydroxy-3-(2-morpholinocarbonylamino)ethylamino]propoxy]phenylpropionic acid hydrochloride] | – | extremely sharp | no excessive lowering of the blood pressure was found | 54.8 min⁻¹ | 161.8 mmHg
